A word on the EC50: it is the concentration needed to bring the measured effect to its halfway point. A lower EC50 goes with a more potent agent.

Active and inactive are the calls of the source. The calls are words filed in the database; no cut-off is given here.

Data set [1] concerns the target T1, Peroxisome proliferator-activated receptor gamma (Homo sapiens) (UniProt P37231).
T1 sequence (whole entry): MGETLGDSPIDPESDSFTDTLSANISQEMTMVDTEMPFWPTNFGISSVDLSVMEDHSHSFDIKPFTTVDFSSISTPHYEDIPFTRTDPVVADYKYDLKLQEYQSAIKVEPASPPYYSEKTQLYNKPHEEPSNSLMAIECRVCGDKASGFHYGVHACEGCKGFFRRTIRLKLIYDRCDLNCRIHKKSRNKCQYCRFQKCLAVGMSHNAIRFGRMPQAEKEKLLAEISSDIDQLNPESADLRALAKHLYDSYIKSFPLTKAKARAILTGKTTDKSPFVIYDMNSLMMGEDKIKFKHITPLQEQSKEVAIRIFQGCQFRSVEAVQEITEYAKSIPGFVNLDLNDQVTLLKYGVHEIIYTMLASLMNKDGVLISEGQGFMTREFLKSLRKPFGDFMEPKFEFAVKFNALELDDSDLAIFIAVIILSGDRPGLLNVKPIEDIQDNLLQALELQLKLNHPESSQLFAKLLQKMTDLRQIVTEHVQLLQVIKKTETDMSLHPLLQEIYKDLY
The experiment in a line: Agonist activity at N-terminal GFP-fused PPARgamma LBD (unknown origin) assessed as biotin-labeled CBP recruitment incubated for 2 hrs by HT-FRET assay relative to rosiglitazone.

For data set [2], the target named is T1, Peroxisome proliferator-activated receptor gamma (Homo sapiens). Put plainly: Agonist activity at PPARgamma in human HepG2 cells without THRB knockdown assessed as induction of CD36 expression at 1 uM incubated for 8 hrs in by Western blot analysis. It counts as cell-based. For orientation: In western blotting, separated proteins are transferred to a membrane and probed.

Data set [3] can be described thus: Drug level in human serum by RIA. Conditions: read-out: Drug uptake. The class given is ADME, cell-free.
The target of data set [4] is RXR alpha/PPAR gamma (Homo sapiens) (UniProt P37231+P19793). Put plainly: Agonist activity at recombinant human pFA-CMV fused PPARgamma LBD transfected in HEK293T cells/human pFA-CMV fused RXRalpha LBD transfected in HEK293T cells assessed as increase in reporter activation at 0.1 to 3 uM incubated for 14 to 16 hrs using […]:RXRalpha LBD at ratio of 4:1 to 1:1 by dual glo luciferase reporter gene assay relative to rosiglitazone. It counts as cell-based. Conditions: HEK-293T. On the technique in general: Reporter assays use an easily measured gene product as a stand-in for the process of interest.

The target in data set [5] is T1, Peroxisome proliferator-activated receptor gamma (Homo sapiens). Put plainly: Agonist activity at PPARgamma in human HepG2 cells with THRB knockdown assessed as induction of CD36 expression at 1 uM incubated for 8 hrs in by Western blot analysis. It counts as cell-based.
The target is the same in data set [6]. The experiment in a line: Agonist activity at PPARgamma in human HepG2 cells with THRA knockdown assessed as induction of CD36 expression at 1 uM incubated for 8 hrs in by Western blot analysis. The class given is cell-based.
The target of data set [7] is T2, Peroxisome proliferator-activated receptor gamma (Mus musculus) (UniProt P37238).
T2 sequence (whole entry): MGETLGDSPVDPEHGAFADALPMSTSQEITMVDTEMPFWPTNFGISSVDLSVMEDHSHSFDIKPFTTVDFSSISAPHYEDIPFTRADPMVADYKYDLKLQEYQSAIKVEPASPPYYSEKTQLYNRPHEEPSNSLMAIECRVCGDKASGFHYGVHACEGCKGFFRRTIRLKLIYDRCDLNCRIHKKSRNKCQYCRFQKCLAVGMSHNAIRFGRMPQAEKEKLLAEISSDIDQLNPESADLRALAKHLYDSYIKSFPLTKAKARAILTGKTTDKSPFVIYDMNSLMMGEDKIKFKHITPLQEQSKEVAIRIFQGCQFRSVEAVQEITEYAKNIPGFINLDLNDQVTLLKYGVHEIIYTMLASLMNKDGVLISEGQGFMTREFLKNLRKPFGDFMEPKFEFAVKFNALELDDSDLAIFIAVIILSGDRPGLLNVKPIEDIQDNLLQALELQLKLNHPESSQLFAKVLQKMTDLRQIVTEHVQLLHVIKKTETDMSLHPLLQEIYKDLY
The experiment in a line: Agonist activity at PPARgamma in mouse 3T3L1 adipocytes assessed as induction of CD36 mRNA expression at 1 uM by qRT-PCR analysis. To be noted: 3T3-L1. The class given is cell-based. On the technique in general: Real-time PCR tracks product formation cycle by cycle.

The target of data set [8] is T1, Peroxisome proliferator-activated receptor gamma (Homo sapiens). The experiment in a line: Agonist activity at N-terminal GFP-fused PPARgamma LBD (unknown origin) assessed as biotin-labeled SRC-1 recruitment incubated for 2 hrs by HT-FRET assay.
Data set [9] has as its target T3, Thyroid hormone receptor beta (Homo sapiens, UniProt P10828).
T3 sequence (P10828 whole entry): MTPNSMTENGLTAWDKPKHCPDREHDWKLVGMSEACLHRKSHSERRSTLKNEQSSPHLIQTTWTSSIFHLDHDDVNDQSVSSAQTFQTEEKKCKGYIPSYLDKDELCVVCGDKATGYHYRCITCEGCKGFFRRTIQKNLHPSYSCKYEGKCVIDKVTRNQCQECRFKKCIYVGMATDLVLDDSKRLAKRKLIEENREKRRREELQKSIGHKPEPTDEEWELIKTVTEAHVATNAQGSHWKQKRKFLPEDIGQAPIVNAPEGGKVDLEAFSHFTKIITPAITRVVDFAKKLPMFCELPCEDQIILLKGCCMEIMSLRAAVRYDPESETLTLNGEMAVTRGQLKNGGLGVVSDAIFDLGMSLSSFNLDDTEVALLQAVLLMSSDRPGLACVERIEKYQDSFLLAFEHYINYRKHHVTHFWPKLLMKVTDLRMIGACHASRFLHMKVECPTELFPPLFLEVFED
Put plainly: Agonist activity at THRbeta (unknown origin) incubated for 14 to 16 hrs by dual glo luciferase reporter gene assay.

Data set [10] concerns the target T1, Peroxisome proliferator-activated receptor gamma (Homo sapiens). The experiment in a line: Agonist activity at PPARgamma in human HepG2 cells assessed as induction of CD36 mRNA expression at 0.03 to 1 uM incubated for 8 hrs by qPCR analysis. The class given is cell-based.
For data set [11], the target named is T2, Peroxisome proliferator-activated receptor gamma (Mus musculus). The experiment in a line: Agonist activity at PPARgamma in mouse 3T3L1 adipocytes assessed as induction of adiponectin mRNA expression at 1 uM by qRT-PCR analysis. The class given is cell-based. Conditions: 3T3-L1.
Data set [12] addresses T1, Peroxisome proliferator-activated receptor gamma (Homo sapiens). Put plainly: Agonist activity at PPARgamma in human HepG2 cells assessed as induction of CD36 mRNA expression at 30 uM incubated for 8 hrs in presence of PPARgamma antagonist GW9662 by qPCR analysis. The class given is cell-based.
Data set [13] has the same target. The experiment in a line: Agonist activity at PPARgamma in human HepG2 cells without THRB knockdown assessed as induction of CD36 expression at 30 uM incubated for 8 hrs in by Western blot analysis. It counts as cell-based.
Data set [14] has the same target. Put plainly: Agonist activity at PPARgamma in human HepG2 cells with THRA knockdown assessed as induction of CD36 expression at 30 uM incubated for 8 hrs in by Western blot analysis. It counts as cell-based.
A short description of data set [15]: Drug metabolism in human HepG2 cells assessed as (S)-2-amino-3-(4-(4-hydroxy-3-iodophenoxy)-3,5-diiodophenyl)propanoic acid formation at 10 uM incubated for 24 hrs by LC-MS analysis. The class given is ADME, cell-based. Conditions: hepg2, 24 h.
Data set [16] concerns the target T1, Peroxisome proliferator-activated receptor gamma (Homo sapiens). Put plainly: Agonist activity at recombinant human pFA-CMV fused PPARgamma LBD expressed in HEK293T cells transfected with pFR-luciferase plasmid and pRL-SV40 plasmid at 15 uM incubated for 14 to 16 hrs in presence of PPARgamma antagonist GW9662 by dual glo luciferase reporter gene assay. The class given is cell-based. To be noted: HEK-293T.

A short description of data set [17]: Drug metabolism in human HepG2 cells assessed as 2-(4-(4-hydroxy-3,5-diiodophenoxy)-3,5-diiodophenyl)acetic acid formation at 10 uM incubated for 24 hrs by LC-MS analysis. It counts as ADME, cell-based. Conditions: hepg2, 24 h.

For `O=C(O)Cc1cc(I)c(Oc2cc(I)c(O)c(I)c2)c(I)c1` [TETRAC], the result in [1], in [2], in data set [4], in [5], in data set [6] and in [7] was Active. Besides, the result in data set [8], in [10] and in data set [11] was Active. In addition, the concentration in data set [3] turned out to be 1.6 nM. Further, the EC50 in [9] is 0.02 µM.

In the case of `N[C@@H](Cc1cc(I)c(Oc2cc(I)c(O)c(I)c2)c(I)c1)C(=O)O` [LEVOTHYROXINE], the outcome in data set [12] and in data set [16] was inactive. Further, the result in [13] and in data set [14] was Active. Besides, the figures for the Drug metabolism in data set [15] and in data set [17] were 174 ng and 44 ng, respectively.

(Values after ChEMBL document CHEMBL4627384, “l-Thyroxin and the Nonclassical Thyroid Hormone TETRAC Are Potent Activators of PPARγ” (J Med Chem, 2020).)
